Read-outs that look alike come from different tables or passages of the source.
How the values were obtained:
[1] = Cytotoxicity in vitro assay (CellTiter-Glo); format: cell-based; settings: African green monkey, Vero cells, mean ± SD
Method: Vero cells, obtained from the Rio de Janeiro Cell Bank (BCRJ code 0245), were dissociated with trypsin–EDTA solution (0.025%), and maintained in RPMI 1640 medium supplemented with 10% fetal bovine serum (FBS) at 37 °C in a humidified atmosphere of 5% CO2.
The compound toxicity was evaluated in Vero cell cultures. Briefly, Vero cells were seeded in 96-well white culture plates at a density of 1.5 × 10^4 cells/well for 24 h at 37 °C and 5% CO2. Thereafter, the cell monolayers were washed with phosphate-buffered saline (PBS) and 200 μL of fresh medium with a serial dilution of the pyrazole-thiazoline derivatives and Bz (1.9–500 µM) added. The cell viability was determined by luminescent assay using the CellTiter-Glo Kit (Promega Corporation, Madison, WI, USA) based on the ATP level. After 72 h of treatment, 20 μL of CellTiter-Glo solution was added per well, and cultures were kept for 2 min under agitation. The luminescent signal was read on the GloMax reader (Promega Corporation, Madison, WI, USA). The concentration of compounds that reduced 50% of cell viability (CC50) was calculated by linear regression. At least three independent assays were performed in duplicate.

[2] = tested on: T. cruzi (Dm28c-Luc) intracellular amastigotes; assay: Trypanocidal activity against intracellular amastigotes in infected Vero cell monolayers; format: cell-based, Trypanosoma cruzi; settings: for IC90: read-out: Trypanocidal Activity Intracellular Amastigotes IC90; for Intracellular Amastigotes SI (CC50 of Vero cells/IC50): selectivity index vs Vero cells
Method: The susceptibility of intracellular amastigotes to pyrazole-thiazoline derivatives (series 1 and 2) was evaluated using 24 h T. cruzi-infected Vero cell monolayers (10:1 parasite/host cell ratio). Then, the cultures were washed with PBS to remove non-internalized parasites, and 200 μL of fresh medium with a serial dilution of pyrazole-thiazoline derivatives and Bz (0.41–100 µM) was added for 72 h at 37 °C.
(§1) After 72 h of treatment, luciferin (300 µg/mL) was added to the culture, and the viability of the parasites was assessed by reading the luminescent signal on the GloMax reader (Promega Corporation, Madison, WI, USA). Controls were also performed in non-toxic concentrations of DMSO (≤ 1%). The concentration that reduces the number of viable parasites by 50% (IC50) or 90% (IC90) was calculated by linear regression. The selectivity index (SI) was calculated as CC50/IC50 for each parasite form.

[3] = tested on: T. cruzi (Dm28c-Luc) trypomastigotes; assay: microbe, parasite or virus in culture; format: cell-based, Trypanosoma cruzi; settings: for IC50 / IC90: Trypanosoma cruzi, 24 h, Dm28c-Luc, mean ± SD; for IC50: read-out: Trypanocidal Activity Trypomastigotes IC50; for IC90: read-out: Trypanocidal Activity Trypomastigotes IC90; for Trypomastigotes SI (CC50 of Vero cells/IC50): selectivity index vs Vero cells
Method: The screening assays were performed with T. cruzi clone Dm28c (TcI) genetically modified to express luciferase gene (Dm28c-Luc), kindly provided by Dr. Cristina Henriques. Trypomastigotes were isolated from T. cruzi-infected Vero cell monolayers (10:1 parasites/host cell ratio). On the 4th day post-infection (dpi), free trypomastigotes in the culture supernatant were harvested, and the number of parasites/mL was quantified in a Neubauer chamber.
The trypanocidal activity of the pyrazole-thiazoline derivatives was evaluated against trypomastigote and intracellular amastigote forms of T. cruzi (Dm28c-Luc). Tissue-derived trypomastigotes (1 × 10^6 parasites/well) were incubated with pyrazole-thiazoline derivatives and Bz in different concentrations (0.41–100 µM) for 24 h at 37 °C in a humidified atmosphere and 5% CO2. The parasite viability was determined by the addition of luciferin (300 µg/mL), followed by luminescence detection on the GloMax microplate reader (Promega Corporation, Madison, WI, USA).
as §1

[4] = Trypanosoma cruzi, Vero, 72 h, Dm28c-Luc in Vero cells, 72 h, mean ± SD, read-out: Trypanocidal Activity Intracellular Amastigotes IC50
[5] = Trypanosoma cruzi, Vero, pIC50 = −log IC50, Dm28c-Luc clone, read-out: Intracellular Amastigotes pIC50 (converted)
[6] = Trypanosoma cruzi, Dm28c-Luc in Vero cells, 72 h, mean ± SD
[7] = Dm28c-Luc in Vero cells, 72 h, mean ± SD, read-out: Trypanocidal Activity Intracellular Amastigotes IC50

`Nc1c(C2=NCCS2)cnn1-c1ccccc1` [Compound 1a, 2-(5-amino-1-phenyl-1H-pyrazol-4-yl)-4,5-dihydrothiazole] gave a CC50 at 72 h [1] of 248 ± 22 µM, an IC50 [2, 4] of 80.7 ± 3.9 µM and an IC50 [2, 5] of 81.3 µM. For the same molecule, the IC90 [2, 6] was greater than 100 µM, the “Intracellular Amastigotes SI (CC50 of Vero cells/IC50)” value (from here on “Intracellular Amastigotes SI”) [2] was 3.1 and the IC50 [3] was 66.4 ± 2.7 µM. For the same molecule, the IC90 [3] was greater than 100 µM, the “Trypomastigotes SI (CC50 of Vero cells/IC50)” value (“Trypomastigotes SI” for short) [3] was 3.7 and the melting point was 176 to 178 °C.
`Nc1c(C2=NCCS2)cnn1-c1cccc(Cl)c1` [Compound 1b, 2-(5-amino-1-(3-chlorophenyl)-1H-pyrazol-4-yl)-4,5-dihydrothiazole] showed a CC50 at 72 h [1] greater than 500 µM, an IC50 [2, 4] of 95.7 ± 4.8 µM and an IC50 [2, 5] of 97.7 µM. For the same molecule, the IC90 [2, 6] was greater than 100 µM, the “Intracellular Amastigotes SI” value [2] was 5.2 and the IC50 [3] was 96.9 ± 3.1 µM. The IC90 [3] was greater than 100 µM, the “Trypomastigotes SI” value [3] was greater than 5.2 and the melting point was 186 to 189 °C.
With `Nc1c(C2=NCCS2)cnn1-c1ccc(Cl)cc1Cl` [Compound 1c, 2-(5-amino-1-(2,4-dichlorophenyl)-1H-pyrazol-4-yl)-4,5-dihydrothiazole] the CC50 at 72 h [1] was greater than 50 µM, the IC50 [2, 4] was greater than 100 µM and the IC50 [2, 5] was greater than 100 µM. The IC90 [2, 6] was greater than 100 µM, the “Intracellular Amastigotes SI” value [2] was less than 5 and the IC50 [3] was greater than 100 µM. For the same molecule, the IC90 [3] was greater than 100 µM, the “Trypomastigotes SI” value [3] was less than 5 and the melting point was 209 to 212 °C.
With `Nc1c(C2=NCCS2)cnn1-c1cc(Cl)cc(Cl)c1` [Compound 1d, 2-(5-amino-1-(3,5-dichlorophenyl)-1H-pyrazol-4-yl)-4,5-dihydrothiazole] the CC50 at 72 h [1] was 416 ± 34.6 µM, the IC50 [2, 4] was 63.2 ± 5.4 µM and the IC50 [2, 5] was 64.6 µM. The IC90 [2, 6] was greater than 100 µM, the “Intracellular Amastigotes SI” value [2] was 6.6 and the IC50 [3] was greater than 100 µM. The IC90 [3] was greater than 100 µM and the melting point was 232 to 234 °C.
In the case of `Nc1c(C2=NCCS2)cnn1-c1ccc(Cl)c(Cl)c1` [Compound 1e, 2-(5-amino-1-(3,4-dichlorophenyl)-1H-pyrazol-4-yl)-4,5-dihydrothiazole], the CC50 at 72 h [1] is reported as greater than 500 µM, the IC50 [2, 4] is reported as greater than 100 µM and the IC50 [2, 5] is reported as greater than 100 µM. For the same molecule, the IC90 [2, 6] was greater than 100 µM, the “Intracellular Amastigotes SI” value [2] was less than 5 and the IC50 [3] was greater than 100 µM. The IC90 [3] was greater than 100 µM, the “Trypomastigotes SI” value [3] was less than 5 and the melting point was 279 to 282 °C.
In the case of `Nc1c(C2=NCCS2)cnn1-c1ccc(Cl)cc1` [Compound 1f, 2-(5-amino-1-(4-chlorophenyl)-1H-pyrazol-4-yl)-4,5-dihydrothiazole], the CC50 at 72 h [1] is reported as greater than 500 µM, the IC50 [2, 4] is reported as greater than 100 µM and the IC50 [2, 5] is reported as greater than 100 µM. For the same molecule, the IC90 [2, 6] was greater than 100 µM, the IC50 [3] was 88.3 ± 7.1 µM and the IC90 [3] was greater than 100 µM. The melting point was 283 to 285 °C.
`Nc1c(C2=NCCS2)cnn1-c1ccc(F)cc1` [Compound 1g, 2-(5-amino-1-(4-fluorophenyl)-1H-pyrazol-4-yl)-4,5-dihydrothiazole] gave a CC50 at 72 h [1] of 483 ± 16.6 µM, an IC50 [2, 4] of 96.3 ± 2.7 µM and an IC50 [2, 5] of 97.7 µM. The IC90 [2, 6] was greater than 100 µM, the “Intracellular Amastigotes SI” value [2] was 5.6 and the IC50 [3] was greater than 100 µM. For the same molecule, the IC90 [3] was greater than 100 µM, the “Trypomastigotes SI” value [3] was less than 5 and the melting point was 244 to 246 °C.
With `Nc1c(C2=NCCS2)cnn1-c1cccc(F)c1` [Compound 1h, 2-(5-amino-1-(3-fluorophenyl)-1H-pyrazol-4-yl)-4,5-dihydrothiazole] the CC50 at 72 h [1] was greater than 500 µM, the IC50 [2, 4] was greater than 100 µM and the IC50 [2, 5] was greater than 100 µM. The IC90 [2, 6] was greater than 100 µM, the “Intracellular Amastigotes SI” value [2] was less than 5 and the IC50 [3] was greater than 100 µM. For the same molecule, the IC90 [3] was greater than 100 µM, the “Trypomastigotes SI” value [3] was less than 5 and the melting point was 230 to 232 °C.
`Nc1c(C2=NCCS2)cnn1-c1ccc(Br)cc1` [Compound 1i, 2-(5-amino-1-(4-bromophenyl)-1H-pyrazol-4-yl)-4,5-dihydrothiazole] gave a CC50 at 72 h [1] greater than 500 µM, an IC50 [2, 4] greater than 100 µM and an IC50 [2, 5] greater than 100 µM. The IC90 [2, 6] was greater than 100 µM, the “Intracellular Amastigotes SI” value [2] was less than 5 and the IC50 [3] was 49.3 ± 4.7 µM. The IC90 [3] was greater than 100 µM, the “Trypomastigotes SI” value [3] was greater than 10.1 and the melting point was 282 to 284 °C.
With `Nc1c(C2=NCCS2)cnn1-c1cccc(Br)c1` [Compound 1j, 2-(5-amino-1-(3-bromophenyl)-1H-pyrazol-4-yl)-4,5-dihydrothiazole] the CC50 at 72 h [1] was greater than 500 µM, the IC50 [2, 4] was 26.6 ± 3.1 µM and the IC50 [2, 5] was 26.9 µM. The IC90 [2, 6] was greater than 100 µM, the “Intracellular Amastigotes SI” value [2] was greater than 18.7 and the IC50 [3] was 52.3 ± 3.4 µM. For the same molecule, the IC90 [3] was greater than 100 µM, the “Trypomastigotes SI” value [3] was greater than 9.5 and the melting point was 171 to 173 °C.
`COc1ccc(-n2ncc(C3=NCCS3)c2N)cc1` [Compound 1k, 2-(5-amino-1-(4-methoxyphenyl)-1H-pyrazol-4-yl)-4,5-dihydrothiazole] gave a CC50 at 72 h [1] greater than 500 µM, an IC50 [2, 4] of 79.1 ± 4.4 µM and an IC50 [2, 5] of 79.4 µM. The IC90 [2, 6] was 97.3 ± 4.7 µM, the “Intracellular Amastigotes SI” value [2] was greater than 6.3 and the IC50 [3] was 12 ± 3.5 µM. The IC90 [3] was 93.4 ± 5.5 µM, the “Trypomastigotes SI” value [3] was greater than 39.9 and the melting point was 164 to 166 °C.
`Nc1c(C2=NCCS2)cnn1-c1cccc(Cl)c1Cl` [Compound 1l, 2-(5-amino-1-(2,3-dichlorophenyl)-1H-pyrazol-4-yl)-4,5-dihydrothiazole] gave a CC50 at 72 h [1] greater than 500 µM, an IC50 [2, 4] of 11.1 ± 2 µM and an IC50 [2, 5] of 11.2 µM. The IC90 [2, 6] was greater than 100 µM, the “Intracellular Amastigotes SI” value [2] was greater than 44.9 and the IC50 [3] was greater than 100 µM. The IC90 [3] was greater than 100 µM, the “Trypomastigotes SI” value [3] was less than 5 and the melting point was 188 to 190 °C.
`c1ccc(-n2cc(C3=NCCS3)cn2)cc1` [Compound 2a, 2-(1-phenyl-1H-pyrazol-4-yl)-4,5-dihydrothiazole] showed a CC50 at 72 h [1] of 187 ± 12.7 µM, an IC50 [2, 4] of 10.7 ± 2.2 µM and an IC50 [2, 5] of 10.7 µM. The IC90 [2, 6] was 89 ± 2.6 µM, the “Intracellular Amastigotes SI” value [2] was 17.4 and the IC50 [3] was 1.1 ± 0.3 µM. The IC90 [3] was 10.4 ± 1.1 µM, the “Trypomastigotes SI” value [3] was 166.8 and the melting point was 112 to 114 °C.
In the case of `Clc1cccc(-n2cc(C3=NCCS3)cn2)c1` [Compound 2b, 2-(1-(3-chlorophenyl)-1H-pyrazol-4-yl)-4,5-dihydrothiazole], the CC50 at 72 h [1] is reported as 78.3 ± 7.7 µM, the IC50 [2, 7] is reported as 8.3 ± 1.9 µM and the IC50 [2, 4] is reported as less than 10 µM. The IC50 [2, 5] was roughly 10 µM, the IC90 [2, 6] was 31.9 ± 1.3 µM and the “Intracellular Amastigotes SI” value [2] was 9.4. For the same molecule, the IC50 [3] was 0.8 ± 0.3 µM, the IC90 [3] was 8.8 ± 1.3 µM and the “Trypomastigotes SI” value [3] was 100.2. It also gave a melting point of 88 to 90 °C.
Work on `Clc1cc(Cl)cc(-n2cc(C3=NCCS3)cn2)c1` [Compound 2d, 2-(1-(3,5-dichlorophenyl)-1H-pyrazol-4-yl)-4,5-dihydrothiazole] yielded a CC50 at 72 h [1] greater than 500 µM, an IC50 [2, 4] greater than 100 µM and an IC50 [2, 5] greater than 100 µM. The IC90 [2, 6] was greater than 100 µM, the “Intracellular Amastigotes SI” value [2] was less than 5 and the IC50 [3] was greater than 100 µM. For the same molecule, the IC90 [3] was greater than 100 µM, the “Trypomastigotes SI” value [3] was less than 5 and the melting point was 134 to 136 °C.
For `Clc1ccc(-n2cc(C3=NCCS3)cn2)cc1` [Compound 2f, 2-(1-(4-chlorophenyl)-1H-pyrazol-4-yl)-4,5-dihydrothiazole], the CC50 at 72 h [1] was 91.7 ± 13.1 µM, the IC50 [2, 7] was 7.6 ± 2.5 µM and the IC50 [2, 4] was less than 10 µM. For the same molecule, the IC50 [2, 5] was roughly 10 µM, the IC90 [2, 6] was 33.5 ± 4.4 µM and the “Intracellular Amastigotes SI” value [2] was 12.0. The IC50 [3] was 0.6 ± 0.3 µM, the IC90 [3] was 13.3 ± 2.3 µM and the “Trypomastigotes SI” value [3] was 143.6. For the same molecule, the melting point was 130 to 133 °C.
